From US4610868A, “Lipid matrix carriers for use in drug delivery systems” (The Liposome Company, Inc., priority 1984, dated 1986)
Where two headings read alike, the source gives them in different places.

Columns and labels:
[1] = Entrapment of ^14C-sucrose/streptomycin in LMCs (liquid scintillation counting); type: physicochemical; conditions: with streptomycin, corn oil/EPC, water-in-oil emulsion
Protocol: Streptomycin (Sigma Chemical Co., St. Louis, Missouri) and ^14 C-sucrose (New England Nuclear, Boston, Massachusetts, 31.3 μCi/m mole) were used together as model water soluble compounds for entrapment in conjunction with corn oil and EPC. The ratio of corn oil to EPC used to prepare the emulsion was […] (weight/weight basis). The water-in-oil emulsion was prepared as follows: 6 ml of corn oil, 40 mg of EPC and 0.3 ml of phosphate buffered saline (PBS) containing 10 μl of ^14 C-sucrose and 100 mg of streptomycin were sonicated together for 45 seconds, using a Branson Model E sonicator at 22° C. The resulting water-in-oil emulsion was then extruded slowly through a 21 gauge syringe needle into 40 ml of the saturated acetone solution, with rapid stirring.
A cloudy suspension of LMCs resulted that was centrifuged at 10,000×gfor 10 minutes at 4° C. The clear supernatant fluid was removed, and the pellet was washed three times with cold saturated acetone, dried under a nitrogen stream, and resuspended in 10 ml of PBS. The hydrated LMCs were then diluted with an equal volume of Ficoll-Paque (Pharmacia Fine Chemicals, Piscataway, New Jersey) and centrifuged at 10,000×g for 10 minutes. […]
In FIG. 4, the data are based upon the stability of streptomycin-LMCs in serum. […] At the times indicated, the absorbances of the samples at 400 and 600 nm were determined, and the 400/600 ratios were computed.

[2] = Entrapment of indomethacin or diazepam in LMCs (radiolabeled tracer); type: physicochemical
Protocol: Ten mg of indomethacin (Sigma Chemical Co., St. Louis, Missouri) plus 10 μl of the ^14 C-labeled drug as a tracer (New England Nuclear, Boston, Massachusetts, 22 mCi/m mole) were dissolved in 1.5 ml of chloroform. This solution was then combined with 4 ml of corn oil and 150 mg of EPC, and the mixture was slowly extruded through a 21 gauge syringe needle into 20 ml of PBS at 45° C., with stirring. After combining all constituents, the mixture was roto-evaporated at 45° C. to remove the chloroform. One ml of the resulting suspension was then combined with an equal volume of Ficoll-Paque, the mixture was centrifuged at 10,000×g for 10 minutes, and the LMCs, which floated to the top of the gradient, were isolated.
By following the procedure described in Section 6.2.1., supra, 5 mg of diazepam (Abbott Laboratories, N. Chicago, Illinois) with a trace of the ^3 H-labeled drug added (New England Nuclear, Boston, Massachusetts, 76.7 Ci/m mole) were incorporated into LMCs.

[3] = Systemic release (urine) of oxytetracycline after topical administration; type: in vivo, Swiss Webster mice; conditions: 0.2 ml of 100 mg/ml, 1, 18, 44 and 72 hours
Protocol: (§1) In the following experiment, two groups of adult male Swiss Webster mice were treated with oxytetracycline as follows: 5 mice per group were depilitated on the back of their necks and 0.2 ml of 100 mg/ml oxytetracycline was topically applied to the depilitated area. The control group received oxytetracycline in PBS whereas the second group received oxytetracycline encapsulated in LMCs prepared as described in Section 6.1.3.
Clean catch urine samples were taken at 1, 18, 44, and 72 hours after topical application and aliquots were analyzed for the presence of oxytetracycline using the bioassay previously described in Sections 6.1.2, 7.1, and 7.2.

[4] = Fluorescence/retention of oxytetracycline in skin after topical administration; type: in vivo, Swiss Webster mice; conditions: 0.2 ml of 100 mg/ml
Protocol: as §1
On a daily basis the treated area of each mouse was illuminated with ultraviolet light and inspected for fluorescence. Since oxytetracycline is fluorescent, the fluorescence of the treated skin is an indication of the presence of the drug in the skin. Fluorescence could be detected for only 2 days in the control group treated with the aqueous solution of oxytetracycline. […] In contrast, fluorescence could be detected up to 4 days in the group that was treated with oxytetracycline-LMCs.

[5] = type: in vivo, Swiss Webster mice; conditions: 80 mg/kg IM
Protocol: LMCs containing oxytetracycline--HCl (Sigma Chemical Co., St. Louis, Missouri) were prepared as described in Section 6.1.3. supra. The LMCs thus produced contained 20 mg of oxytetracycline per ml of hydrated LMCs, as determined by the bioassay described in Section 6.1.3. Ten 25 g female adult Swiss Webster mice were then injected IM with 80 mg/kg of oxytetracycline in one hind leg, using either LMC-oxytetracycline or the free drug. In both cases, the antibiotic was administered in 0.1 ml of physiological saline.
At the times indicated in FIG. 3, samples of clean-catch urine were taken and aliquots were plated onto lawns of S. aureus (ATCC 11632) as described in Section 7.1. Antibiotic levels were quantified by comparison to an oxytetracycline standard curve. […] By 174 hours following injection, urinary levels of oxytetracycline were undetectable.

[6] = parameters: species or system Hartley guinea pigs; conditions: guinea pig, in vivo, ip
Protocol: To investigate the drug release characteristics of LMCs in vivo, gentamicin-LMC preparations were injected intraperitoneally (IP) into experimental animals. The final distribution of the drug was then compared with that of similarly injected free gentamicin.
LMCs were prepared as described in Section 6.1.2., using 6 ml of corn oil, 0.3 ml of PBS, 40 mg of EPC, 100 mg of gentamicin (with a small amount of I-gentamicin added as a tracer) and 40 ml of acetone. The resulting product contained 0.5 mg of gentamicin per mg of dry weight LMCs, as determined by gamma counting.
Two groups of 850 g female adult Hartley guinea pigs (Hilltop Farms, Scottsdale, Pennsylvania) were treated as follows: Animals in one group each received 0.3 ml of 100 μg/ml gentamicin in saline (with a small amount of ^125 I-gentamicin added as a tracer), IP. IP injection leads to rapid systemic distribution of the injected material. Animals in the other group received the same quantity of gentamicin entrapped in LMCs. At various times after injection pairs of animals were sacrificed, the hearts, spleens, kidneys and livers were removed, and the quantity of gentamicin in each organ was determined by counting in a crystal gamma counter.

## OC[C@H]1O[C@@](CO)(O[C@H]2O[C@H](CO)[C@@H](O)[C@H](O)[C@H]2O)[C@@H](O)[C@@H]1O [^14 C-sucrose, sucrose]
[1]
  initial amount of ^14 C-sucrose entrapped in the LMCs: 96.5%

## CN1C(=O)CN=C(c2ccccc2)c2cc(Cl)ccc21 [diazepam]
[2]
  degree of entrapment: 93%

## COc1ccc2c(c1)c(CC(=O)O)c(C)n2C(=O)c1ccc(Cl)cc1 [indomethacin]
[2]
  degree of entrapment: 84%
[2]; corn oil/EPC, chloroform
  degree of entrapment (starting amount incorporated into the LMCs): 84%

## CN(C)C1C(=O)C(C(N)=O)=C(O)C2(O)C(=O)C3=C(O)c4c(O)cccc4C(C)(O)C3C(O)C12 (stereo not drawn) [oxytetracycline]
[3]
  oxytetracycline in urine: No detectable levels
[4]
  duration of detectable skin fluorescence: 2 days
  removal from skin by washing: could easily be washed off
[5]
  time within which urinary levels diminished to zero: ≤ 30 h

## gentamicin
[6]; 15 min
  Recovery of Gentamicin, Heart: 0.17 % of Total Administered
  Recovery of Gentamicin, Kidney: 2.53 % of Total Administered
  Recovery of Gentamicin, Liver: 2.60 % of Total Administered
  Recovery of Gentamicin, Spleen: 0.09 % of Total Administered
[6]; 30 min
  Recovery of Gentamicin, Heart: 1.23 % of Total Administered
  Recovery of Gentamicin, Kidney: 4.32 % of Total Administered
  Recovery of Gentamicin, Liver: 3.14 % of Total Administered
  Recovery of Gentamicin, Spleen: 0.08 % of Total Administered
[6]; 60 min
  Recovery of Gentamicin, Heart: 0.15 % of Total Administered
  Recovery of Gentamicin, Kidney: 7.04 % of Total Administered
  Recovery of Gentamicin, Liver: 2.28 % of Total Administered
  Recovery of Gentamicin, Spleen: 0.05 % of Total Administered
[6]; 120 min
  Recovery of Gentamicin, Heart: 0.13 % of Total Administered
  Recovery of Gentamicin, Kidney: 7.27 % of Total Administered
  Recovery of Gentamicin, Liver: 2.00 % of Total Administered
  Recovery of Gentamicin, Spleen: 0.04 % of Total Administered
